Assay results as given in patent US9944602B2, “Piperidinone herbicides” (E. I. DU PONT DE NEMOURS AND COMPANY, priority 2014, dated 2018).

Tests used:
Type in all cases: in vivo
[1] = test system: pigweed (Amaranthus retroflexus); experiment: Test A preemergence pigweed; details: 0 to 100 scale, 0 no effect, 100 complete control
Summary of the method: (§1)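 Compounds in non-phytotoxic solvent with surfactant, applied preemergence as directed soil spray on seeds in loam–sand blend, or postemergence to plants 2–10 cm tall at one- to two-leaf stage. Greenhouse ~10 d, then visual injury versus untreated controls, 0 (no effect) to 100 (complete control).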

[2] = test system: barnyardgrass (Echinochloa crus-galli); experiment: Test B flooded paddy test barnyardgrass; details: Table B, Flood, scale 0 to 100
Summary of the method: (§2)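 Water-applied paddy treatment: compound dosed into 3 cm flood on 2-leaf plants, read visually versus controls after 13 to 15 d.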

[3] = test system: ragweed (common ragweed, Ambrosia elatior); experiment: Test A postemergence ragweed; details: 0 to 100 scale, 0 is no effect, 100 is complete control
Summary of the method: as §1

[4] = test system: blackgrass (Alopecurus myosuroides); experiment: Test A postemergence blackgrass; details: 0 to 100 scale, 0 is no effect, 100 is complete control
Summary of the method: as §1

[5] = test system: ducksalad (Heteranthera limosa); experiment: Test B flooded paddy test ducksalad; details: Table B, Flood, scale 0 to 100
Summary of the method: as §2

[6] = test system: ragweed (common ragweed, Ambrosia elatior); experiment: Test A preemergence ragweed; details: 0 to 100 scale, 0 no effect, 100 complete control
Summary of the method: as §1

rice (Oryza sativa) = experiment: Test B flooded paddy test rice; details: Table B, Flood, scale 0 to 100
Summary of the method: as §2

corn (Zea mays) = experiment: Test A postemergence corn; details: 0 to 100 scale, 0 is no effect, 100 is complete control
Summary of the method: as §1

[7] = test system: foxtail, giant (giant foxtail, Setaria faberii); experiment: Test A postemergence foxtail, giant; details: 0 to 100 scale, 0 is no effect, 100 is complete control
Summary of the method: as §1

kochia (Kochia scoparia) [8] = experiment: Test A postemergence kochia; details: 0 to 100 scale, 0 is no effect, 100 is complete control
Summary of the method: as §1

[9] = test system: foxtail, giant (giant foxtail, Setaria faberii); experiment: Test A preemergence foxtail, giant; details: 0 to 100 scale, 0 no effect, 100 complete control
Summary of the method: as §1

[10] = test system: pigweed (Amaranthus retroflexus); experiment: Test A postemergence pigweed; details: 0 to 100 scale, 0 is no effect, 100 is complete control
Summary of the method: as §1

[11] = test system: wheat (Triticum aestivum); experiment: Test A postemergence wheat; details: 0 to 100 scale, 0 is no effect, 100 is complete control
Summary of the method: as §1

[12] = test system: galium (catchweed bedstraw, Galium aparine); experiment: Test A postemergence galium; details: 0 to 100 scale, 0 is no effect, 100 is complete control
Summary of the method: as §1

[13] = test system: ryegrass, Italian (Italian ryegrass, Lolium multiflorum); experiment: Test A postemergence ryegrass, Italian; details: 0 to 100 scale, 0 is no effect, 100 is complete control
Summary of the method: as §1

[14] = test system: barnyardgrass (Echinochloa crus-galli); experiment: Test A postemergence barnyardgrass; details: 0 to 100 scale, 0 is no effect, 100 is complete control
Summary of the method: as §1

kochia (Kochia scoparia) [15] = experiment: Test A preemergence kochia; details: 0 to 100 scale, 0 no effect, 100 complete control
Summary of the method: as §1

[16] = test system: barnyardgrass (Echinochloa crus-galli); experiment: Test A preemergence barnyardgrass; details: 0 to 100 scale, 0 no effect, 100 complete control
Summary of the method: as §1

[17] = test system: sedge, umbrella (small-flower umbrella sedge, Cyperus difformis); experiment: Test B flooded paddy test sedge, umbrella; details: Table B, Flood, scale 0 to 100
Summary of the method: as §2

[18] = test system: ryegrass, Italian (Italian ryegrass, Lolium multiflorum); experiment: Test A preemergence ryegrass, Italian; details: 0 to 100 scale, 0 no effect, 100 complete control
Summary of the method: as §1

Row | SMILES | Pigweed plant response rating ([1]; 125 g ai/ha) | Pigweed plant response rating ([1]; 500 g ai/ha) | Plant response rating, Ragweed ([3]; 125 g ai/ha) | Plant response rating, Ragweed ([3]; 500 g ai/ha) | Plant response rating, Blackgrass ([4]; 125 g ai/ha) | Plant response rating, Blackgrass ([4]; 500 g ai/ha) | Ragweed plant response rating ([6]; 125 g ai/ha) | Ragweed plant response rating ([6]; 500 g ai/ha) | Plant response rating, Corn (corn (Zea mays); 125 g ai/ha) | Plant response rating, Corn (corn (Zea mays); 500 g ai/ha) | Plant response rating, Foxtail, Giant ([7]; 125 g ai/ha) | Plant response rating, Foxtail, Giant ([7]; 500 g ai/ha) | Plant response rating, Kochia (kochia (Kochia scoparia) [8]; 125 g ai/ha) | Plant response rating, Kochia (kochia (Kochia scoparia) [8]; 500 g ai/ha) | Foxtail, Giant plant response rating ([9]; 125 g ai/ha) | Foxtail, Giant plant response rating ([9]; 500 g ai/ha) | Plant response rating, Pigweed ([10]; 125 g ai/ha) | Plant response rating, Pigweed ([10]; 500 g ai/ha) | Plant response rating, Wheat ([11]; 125 g ai/ha) | Plant response rating, Wheat ([11]; 500 g ai/ha) | further results
1 | O=C1NCCC(c2ccc(C(F)(F)F)cc2)C1C(=O)Nc1cccc(F)c1Cl (racemic) [Compound 15] | 0 | 0 | 0 | 40 | 20 | 50 | 0 | 80 | 0 | 0 | 70 | 80 | 10 | 60 | 80 | 90 | 0 | 0 | 0 | 0 | Plant response rating ([2]; 500 g ai/ha): 40; Plant response rating ([5]; 500 g ai/ha): 60; Plant response rating (rice (Oryza sativa); 500 g ai/ha): 0; Plant response rating, Galium ([12]; 125 g ai/ha): 30; Plant response rating, Galium ([12]; 500 g ai/ha): 70; Plant response rating, Ryegrass, Italian ([13]; 125 g ai/ha): 0; Plant response rating, Ryegrass, Italian ([13]; 500 g ai/ha): 0; Plant response rating, Barnyardgrass ([14]; 125 g ai/ha): 60; Plant response rating, Barnyardgrass ([14]; 500 g ai/ha): 70; Kochia plant response rating (kochia (Kochia scoparia) [15]; 125 g ai/ha): 0; Kochia plant response rating (kochia (Kochia scoparia) [15]; 500 g ai/ha): 0; Barnyardgrass plant response rating ([16]; 125 g ai/ha): 60; Barnyardgrass plant response rating ([16]; 500 g ai/ha): 80; Plant response rating ([17]; 500 g ai/ha): 0; Ryegrass, Italian plant response rating ([18]; 125 g ai/ha): 0; Ryegrass, Italian plant response rating ([18]; 500 g ai/ha): 0
2 | O=C1NCC[C@@H](c2cccc(C(F)(F)F)c2)[C@@H]1C(=O)Nc1ccc(F)c(F)c1F [Compound 29] | 0 | 0 | 0 | 0 | 0 | 0 | 0 | 0 | 0 | 0 | 0 | 0 | 0 | 0 | 0 | 20 | 0 | 0 | 0 | 0 | Plant response rating ([2]; 250 g ai/ha): 0; Plant response rating ([5]; 250 g ai/ha): 0; Plant response rating (rice (Oryza sativa); 250 g ai/ha): 0; Plant response rating, Galium ([12]; 125 g ai/ha): 0; Plant response rating, Galium ([12]; 500 g ai/ha): 0; Plant response rating, Ryegrass, Italian ([13]; 125 g ai/ha): 0; Plant response rating, Ryegrass, Italian ([13]; 500 g ai/ha): 0; Plant response rating, Barnyardgrass ([14]; 125 g ai/ha): 0; Plant response rating, Barnyardgrass ([14]; 500 g ai/ha): 30; Kochia plant response rating (kochia (Kochia scoparia) [15]; 125 g ai/ha): 0; Kochia plant response rating (kochia (Kochia scoparia) [15]; 500 g ai/ha): 0; Barnyardgrass plant response rating ([16]; 125 g ai/ha): 0; Barnyardgrass plant response rating ([16]; 500 g ai/ha): 20; Plant response rating ([17]; 250 g ai/ha): 0; Ryegrass, Italian plant response rating ([18]; 125 g ai/ha): 0; Ryegrass, Italian plant response rating ([18]; 500 g ai/ha): 0
3 | O=C1NCCC(c2cccc(OC(F)(F)F)c2)C1C(=O)Nc1cccc(F)c1F (racemic) [Compound 39] | 0 | 10 | 0 | 0 | 0 | 60 | 0 | 0 | 0 | 50 | 70 | 90 | 0 | 0 | 90 | 90 | 0 | 0 | 0 | 30 | Plant response rating ([2]; 250 g ai/ha): 65; Plant response rating ([5]; 250 g ai/ha): 100; Plant response rating (rice (Oryza sativa); 250 g ai/ha): 0; Plant response rating, Galium ([12]; 125 g ai/ha): 0; Plant response rating, Galium ([12]; 500 g ai/ha): 0; Plant response rating, Ryegrass, Italian ([13]; 125 g ai/ha): 0; Plant response rating, Ryegrass, Italian ([13]; 500 g ai/ha): 50; Plant response rating, Barnyardgrass ([14]; 125 g ai/ha): 80; Plant response rating, Barnyardgrass ([14]; 500 g ai/ha): 80; Kochia plant response rating (kochia (Kochia scoparia) [15]; 125 g ai/ha): 0; Kochia plant response rating (kochia (Kochia scoparia) [15]; 500 g ai/ha): 0; Barnyardgrass plant response rating ([16]; 125 g ai/ha): 80; Barnyardgrass plant response rating ([16]; 500 g ai/ha): 90; Plant response rating ([17]; 250 g ai/ha): 0; Ryegrass, Italian plant response rating ([18]; 125 g ai/ha): 30; Ryegrass, Italian plant response rating ([18]; 500 g ai/ha): 70
4 | O=C(Nc1ccccc1C(F)(F)F)C1C(=O)N(C2CC2)CCC1c1ccc(F)cc1 (stereo not drawn) [Compound 50] | 0 | 0 | 0 | 0 | 0 | 0 | 0 | 0 | 0 | 0 | 0 | 0 | 0 | 0 | 0 | 40 | 0 | 0 | 0 | 0 | Plant response rating ([2]; 250 g ai/ha): 0; Plant response rating ([5]; 250 g ai/ha): 0; Plant response rating (rice (Oryza sativa); 250 g ai/ha): 0; Plant response rating, Galium ([12]; 125 g ai/ha): 0; Plant response rating, Galium ([12]; 500 g ai/ha): 0; Plant response rating, Ryegrass, Italian ([13]; 125 g ai/ha): 0; Plant response rating, Ryegrass, Italian ([13]; 500 g ai/ha): 0; Plant response rating, Barnyardgrass ([14]; 125 g ai/ha): 0; Plant response rating, Barnyardgrass ([14]; 500 g ai/ha): 0; Kochia plant response rating (kochia (Kochia scoparia) [15]; 125 g ai/ha): 0; Kochia plant response rating (kochia (Kochia scoparia) [15]; 500 g ai/ha): 0; Barnyardgrass plant response rating ([16]; 125 g ai/ha): 0; Barnyardgrass plant response rating ([16]; 500 g ai/ha): 0; Plant response rating ([17]; 250 g ai/ha): 0; Ryegrass, Italian plant response rating ([18]; 125 g ai/ha): 0; Ryegrass, Italian plant response rating ([18]; 500 g ai/ha): 0
